Laboratory results: US10344060B2 (priority 2013, dated 2019)

What follows are compounds tested against hNav1.7 (Homo sapiens, UniProt Q15858) (assay: cell-based). Conditions: Table 12; PatchXpress, tonic block; read-out: PX hNav1.7 Tonic IC50.
hNav1.7, sequence (Q15858 whole entry): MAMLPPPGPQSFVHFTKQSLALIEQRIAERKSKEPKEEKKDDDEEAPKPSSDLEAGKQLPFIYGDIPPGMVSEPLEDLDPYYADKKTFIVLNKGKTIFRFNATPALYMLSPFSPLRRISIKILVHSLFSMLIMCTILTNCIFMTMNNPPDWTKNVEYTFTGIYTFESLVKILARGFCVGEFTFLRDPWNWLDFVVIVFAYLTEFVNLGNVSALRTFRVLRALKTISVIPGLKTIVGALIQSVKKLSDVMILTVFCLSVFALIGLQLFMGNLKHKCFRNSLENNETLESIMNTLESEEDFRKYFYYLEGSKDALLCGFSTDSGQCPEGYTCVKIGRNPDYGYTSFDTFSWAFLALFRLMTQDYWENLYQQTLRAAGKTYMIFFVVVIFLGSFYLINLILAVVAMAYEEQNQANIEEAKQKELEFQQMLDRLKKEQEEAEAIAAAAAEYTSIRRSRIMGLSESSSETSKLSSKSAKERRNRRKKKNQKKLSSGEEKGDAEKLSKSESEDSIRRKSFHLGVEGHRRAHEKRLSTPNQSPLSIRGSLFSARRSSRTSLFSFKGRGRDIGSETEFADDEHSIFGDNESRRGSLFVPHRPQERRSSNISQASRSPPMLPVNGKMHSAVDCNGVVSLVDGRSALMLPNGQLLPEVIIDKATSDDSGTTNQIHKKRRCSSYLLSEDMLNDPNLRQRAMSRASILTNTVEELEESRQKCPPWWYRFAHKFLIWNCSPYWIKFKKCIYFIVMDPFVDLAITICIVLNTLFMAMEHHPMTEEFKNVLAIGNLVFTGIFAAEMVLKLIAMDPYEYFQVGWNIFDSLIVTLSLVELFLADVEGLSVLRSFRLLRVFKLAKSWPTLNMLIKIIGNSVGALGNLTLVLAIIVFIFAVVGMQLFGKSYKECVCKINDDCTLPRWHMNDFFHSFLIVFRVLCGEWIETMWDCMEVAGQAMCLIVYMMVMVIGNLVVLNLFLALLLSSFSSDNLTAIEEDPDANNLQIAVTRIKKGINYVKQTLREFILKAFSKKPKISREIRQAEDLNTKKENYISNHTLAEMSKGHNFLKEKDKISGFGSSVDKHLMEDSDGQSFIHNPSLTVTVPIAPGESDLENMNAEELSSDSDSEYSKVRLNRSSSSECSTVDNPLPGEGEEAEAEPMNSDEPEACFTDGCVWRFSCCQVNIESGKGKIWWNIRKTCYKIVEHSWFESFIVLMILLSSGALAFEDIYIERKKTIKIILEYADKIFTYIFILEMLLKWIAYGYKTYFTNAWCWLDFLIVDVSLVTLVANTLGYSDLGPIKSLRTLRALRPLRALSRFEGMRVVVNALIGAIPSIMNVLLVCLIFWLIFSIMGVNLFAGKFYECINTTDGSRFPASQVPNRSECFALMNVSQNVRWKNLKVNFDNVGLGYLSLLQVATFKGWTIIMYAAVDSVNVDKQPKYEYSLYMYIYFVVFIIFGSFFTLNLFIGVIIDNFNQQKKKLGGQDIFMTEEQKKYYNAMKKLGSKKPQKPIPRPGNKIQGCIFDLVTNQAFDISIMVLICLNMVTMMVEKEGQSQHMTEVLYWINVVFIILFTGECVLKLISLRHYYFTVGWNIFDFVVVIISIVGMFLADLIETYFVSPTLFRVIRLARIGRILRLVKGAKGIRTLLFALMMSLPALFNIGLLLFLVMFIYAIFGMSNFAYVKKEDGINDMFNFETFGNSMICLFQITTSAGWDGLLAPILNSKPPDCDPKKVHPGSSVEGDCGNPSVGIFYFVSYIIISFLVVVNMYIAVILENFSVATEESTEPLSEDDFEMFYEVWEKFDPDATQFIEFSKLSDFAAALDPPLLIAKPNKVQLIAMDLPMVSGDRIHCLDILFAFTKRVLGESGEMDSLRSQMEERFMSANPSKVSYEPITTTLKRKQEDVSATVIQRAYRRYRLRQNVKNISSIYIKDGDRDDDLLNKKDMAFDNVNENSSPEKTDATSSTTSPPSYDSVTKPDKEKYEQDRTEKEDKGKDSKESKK
Type: cell-based
Work on `C#CC[C@H](N)C(=O)N[C@@H](Cc1ccc(O)cc1)C(=O)N[C@H]1CSSC[C@@H]2NC(=O)[C@@H]3CSSC[C@@H](C(=O)N[C@@H](CCCNC(=N)N)C(=O)N[C@@H](CCCCN)C(=O)NCC(=O)N[C@H](C(N)=O)[C@@H](C)CC)NC(=O)[C@H](Cc4c[nH]c5ccccc45)NC(=O)[C@H](CC(C)C)NC(=O)[C@H](CCCCN)NC(=O)[C@H](CSSC[C@H](NC(=O)[C@H]([C@@H](C)O)NC(=O)[C@H](Cc4c[nH]c5ccccc45)NC(=O)[C@H](CCCC)NC(=O)[C@H](Cc4c[nH]c5ccccc45)NC(=O)[C@H](CCCCN)NC(=O)[C@H](CCC(N)=O)NC1=O)C(=O)N[C@@H](CC(=O)O)C(=O)N[C@@H](CO)C(=O)N[C@@H](CCCCN)C(=O)N[C@@H](CCCNC(=N)N)C(=O)N[C@@H](C)C(=O)N3)NC(=O)[C@H](CCCNC(=N)N)NC(=O)[C@H](CC(C)C)NC(=O)CNC(=O)[C@H](CCC(=O)O)NC2=O` [compound 651] yielded an IC50 of 3.14 nM. Work on `C#CC[C@H](N)C(=O)N[C@@H](Cc1ccc(O)cc1)C(=O)N[C@H]1CSSC[C@@H]2NC(=O)[C@@H]3CSSC[C@@H](C(=O)N[C@@H](CCCNC(=N)N)C(=O)N[C@@H](CCCCN)C(=O)N[C@@H](Cc4c[nH]cn4)C(=O)N[C@H](C(N)=O)[C@@H](C)CC)NC(=O)[C@H](Cc4c[nH]c5ccccc45)NC(=O)[C@H](CC(C)C)NC(=O)[C@H](CCCCN)NC(=O)[C@H](CSSC[C@H](NC(=O)[C@H]([C@@H](C)O)NC(=O)[C@H](Cc4c[nH]c5ccccc45)NC(=O)[C@H](CCCC)NC(=O)[C@H](Cc4c[nH]c5ccccc45)NC(=O)[C@H](CCCCN)NC(=O)[C@H](CCC(N)=O)NC1=O)C(=O)N[C@@H](CC(=O)O)C(=O)N[C@@H](CO)C(=O)N[C@@H](CCCCN)C(=O)N[C@@H](CCCNC(=N)N)C(=O)N[C@@H](C)C(=O)N3)NC(=O)[C@H](CCCNC(=N)N)NC(=O)[C@H](CC(C)C)NC(=O)CNC(=O)[C@H](CCC(=O)O)NC2=O` [compound 652] yielded an IC50 of 0.371 nM. `C#CC[C@H](N)C(=O)N[C@@H](Cc1ccc(O)cc1)C(=O)N[C@H]1CSSC[C@@H]2NC(=O)[C@@H]3CSSC[C@@H](C(=O)N[C@@H](CCCNC(=N)N)C(=O)N[C@@H](CCCCN)C(=O)N[C@@H](CCCC)C(=O)N[C@H](C(N)=O)[C@@H](C)CC)NC(=O)[C@H](Cc4c[nH]c5ccccc45)NC(=O)[C@H](CC(C)C)NC(=O)[C@H](CCCCN)NC(=O)[C@H](CSSC[C@H](NC(=O)[C@H]([C@@H](C)O)NC(=O)[C@H](Cc4c[nH]c5ccccc45)NC(=O)[C@H](CCCC)NC(=O)[C@H](Cc4c[nH]c5ccccc45)NC(=O)[C@H](CCCCN)NC(=O)[C@H](CCC(N)=O)NC1=O)C(=O)N[C@@H](CC(=O)O)C(=O)N[C@@H](CO)C(=O)N[C@@H](CCCCN)C(=O)N[C@@H](CCCNC(=N)N)C(=O)N[C@@H](C)C(=O)N3)NC(=O)[C@H](CCCNC(=N)N)NC(=O)[C@H](CC(C)C)NC(=O)CNC(=O)[C@H](CCC(=O)O)NC2=O` [compound 664] gave an IC50 of 0.339 nM. `C#CC[C@H](N)C(=O)N[C@@H](Cc1ccc(O)cc1)C(=O)N[C@H]1CSSC[C@@H]2NC(=O)[C@@H]3CSSC[C@@H](C(=O)N[C@@H](CCCNC(=N)N)C(=O)N[C@@H](CCCCN)C(=O)N[C@H](C(=O)N[C@H](C(N)=O)[C@@H](C)CC)[C@@H](C)CC)NC(=O)[C@H](Cc4c[nH]c5ccccc45)NC(=O)[C@H](CC(C)C)NC(=O)[C@H](CCCCN)NC(=O)[C@H](CSSC[C@H](NC(=O)[C@H]([C@@H](C)O)NC(=O)[C@H](Cc4c[nH]c5ccccc45)NC(=O)[C@H](CCCC)NC(=O)[C@H](Cc4c[nH]c5ccccc45)NC(=O)[C@H](CCCCN)NC(=O)[C@H](CCC(N)=O)NC1=O)C(=O)N[C@@H](CC(=O)O)C(=O)N[C@@H](CO)C(=O)N[C@@H](CCCCN)C(=O)N[C@@H](CCCNC(=N)N)C(=O)N[C@@H](C)C(=O)N3)NC(=O)[C@H](Cc1ccc(O)cc1)NC(=O)[C@H](CC(C)C)NC(=O)CNC(=O)[C@H](CCC(=O)O)NC2=O` [compound 682] was tested, and the IC50 was 5.98 nM. `C#CC[C@H](N)C(=O)N[C@@H](Cc1ccc(O)cc1)C(=O)N[C@H]1CSSC[C@@H]2NC(=O)[C@@H]3CSSC[C@@H](C(=O)N[C@@H](CCCNC(=N)N)C(=O)N[C@@H](CCCCN)C(=O)N[C@@H](CCC(=O)O)C(=O)N[C@H](C(N)=O)[C@@H](C)CC)NC(=O)[C@H](Cc4c[nH]c5ccccc45)NC(=O)[C@H](CC(C)C)NC(=O)[C@H](CCCCN)NC(=O)[C@H](CSSC[C@H](NC(=O)[C@H]([C@@H](C)O)NC(=O)[C@H](Cc4c[nH]c5ccccc45)NC(=O)[C@H](CCCC)NC(=O)[C@H](Cc4c[nH]c5ccccc45)NC(=O)[C@H](CCCCN)NC(=O)[C@H](CCC(N)=O)NC1=O)C(=O)N[C@@H](CC(=O)O)C(=O)N[C@@H](CO)C(=O)N[C@@H](CCCCN)C(=O)N[C@@H](CCCNC(=N)N)C(=O)N[C@@H](C)C(=O)N3)NC(=O)[C@H](Cc1ccccc1)NC(=O)[C@H](CC(C)C)NC(=O)CNC(=O)[C@H](CCC(=O)O)NC2=O` [compound 686] was tested, and the IC50 was 10.3 nM. `C#CC[C@H](N)C(=O)N[C@@H](Cc1ccc(O)cc1)C(=O)N[C@H]1CSSC[C@@H]2NC(=O)[C@@H]3CSSC[C@@H](C(=O)N[C@@H](CCCNC(=N)N)C(=O)N[C@@H](CCCCN)C(=O)N[C@@H](CCC(=O)O)C(=O)N[C@H](C(N)=O)[C@@H](C)CC)NC(=O)[C@H](Cc4c[nH]c5ccccc45)NC(=O)[C@H](CC(C)C)NC(=O)[C@H](CCCCN)NC(=O)[C@H](CSSC[C@H](NC(=O)[C@H]([C@@H](C)O)NC(=O)[C@H](Cc4c[nH]c5ccccc45)NC(=O)[C@H](CCCC)NC(=O)[C@H](Cc4c[nH]c5ccccc45)NC(=O)[C@H](CCCCN)NC(=O)[C@H](CCC(N)=O)NC1=O)C(=O)N[C@@H](CC(=O)O)C(=O)N[C@@H](CO)C(=O)N[C@@H](CCCCN)C(=O)N[C@@H](CCCNC(=N)N)C(=O)N[C@@H](C)C(=O)N3)NC(=O)[C@H](CCCNC(=N)N)NC(=O)[C@H](C)NC(=O)CNC(=O)[C@H](CCC(=O)O)NC2=O` [compound 703] gave an IC50 of over 1000 nM. `C#CC[C@H](N)C(=O)N[C@@H](Cc1ccc(O)cc1)C(=O)N[C@H]1CSSC[C@@H]2NC(=O)[C@@H]3CSSC[C@@H](C(=O)N[C@@H](CCCNC(=N)N)C(=O)N[C@@H](CCCCN)C(=O)N[C@@H](CCC(=O)O)C(=O)N[C@H](C(N)=O)[C@@H](C)CC)NC(=O)[C@H](Cc4c[nH]c5ccccc45)NC(=O)[C@H](CC(C)C)NC(=O)[C@H](CCCCN)NC(=O)[C@H](CSSC[C@H](NC(=O)[C@H]([C@@H](C)O)NC(=O)[C@H](Cc4c[nH]c5ccccc45)NC(=O)[C@H](CCCC)NC(=O)[C@H](Cc4c[nH]c5ccccc45)NC(=O)[C@H](CCCCN)NC(=O)[C@H](CCC(N)=O)NC1=O)C(=O)N[C@@H](CC(=O)O)C(=O)N[C@@H](CO)C(=O)N[C@@H](CCCCN)C(=O)N[C@@H](CCCNC(=N)N)C(=O)N[C@@H](C)C(=O)N3)NC(=O)[C@H](CCCNC(=N)N)NC(=O)[C@H](CCCCN)NC(=O)CNC(=O)[C@H](CCC(=O)O)NC2=O` [compound 704] showed an IC50 of over 1000 nM. Compound `C#CC[C@H](N)C(=O)N[C@@H](Cc1ccc(O)cc1)C(=O)N[C@H]1CSSC[C@@H]2NC(=O)[C@@H]3CSSC[C@@H](C(=O)N[C@@H](CCCNC(=N)N)C(=O)N[C@@H](CCCCN)C(=O)N[C@@H](CCC(=O)O)C(=O)N[C@H](C(N)=O)[C@@H](C)CC)NC(=O)[C@H](Cc4c[nH]c5ccccc45)NC(=O)[C@H](CC(C)C)NC(=O)[C@H](CCCCN)NC(=O)[C@H](CSSC[C@H](NC(=O)[C@H]([C@@H](C)O)NC(=O)[C@H](Cc4c[nH]c5ccccc45)NC(=O)[C@H](CCCC)NC(=O)[C@H](Cc4c[nH]c5ccccc45)NC(=O)[C@H](CCCCN)NC(=O)[C@H](CCC(N)=O)NC1=O)C(=O)N[C@@H](CC(=O)O)C(=O)N[C@@H](CO)C(=O)N[C@@H](CCCCN)C(=O)N[C@@H](CCCNC(=N)N)C(=O)N[C@@H](C)C(=O)N3)NC(=O)[C@H](CCCNC(=N)N)NC(=O)[C@H](CCCNC(=N)N)NC(=O)CNC(=O)[C@H](CCC(=O)O)NC2=O` [compound 705] has an IC50 of over 1000 nM. With `C#CC[C@H](N)C(=O)N[C@@H](Cc1ccc(O)cc1)C(=O)N[C@H]1CSSC[C@@H]2NC(=O)[C@@H]3CSSC[C@@H](C(=O)N[C@@H](CCCNC(=N)N)C(=O)N[C@@H](CCCCN)C(=O)N[C@@H](CCC(=O)O)C(=O)N[C@H](C(N)=O)[C@@H](C)CC)NC(=O)[C@H](Cc4c[nH]c5ccccc45)NC(=O)[C@H](CC(C)C)NC(=O)[C@H](CCCCN)NC(=O)[C@H](CSSC[C@H](NC(=O)[C@H]([C@@H](C)O)NC(=O)[C@H](Cc4c[nH]c5ccccc45)NC(=O)[C@H](CCCC)NC(=O)[C@H](Cc4c[nH]c5ccccc45)NC(=O)[C@H](CCCCN)NC(=O)[C@H](CCC(N)=O)NC1=O)C(=O)N[C@@H](CC(=O)O)C(=O)N[C@@H](CO)C(=O)N[C@@H](CCCCN)C(=O)N[C@@H](CCCNC(=N)N)C(=O)N[C@@H](C)C(=O)N3)NC(=O)[C@H](CCCNC(=N)N)NC(=O)[C@H](CC(C)C)NC(=O)[C@H](CCC(=O)O)NC(=O)[C@H](CCC(=O)O)NC2=O` [compound 719] the IC50 was over 1000 nM.

Same assay, conditions: ratio of PX tonic IC50 values; Table 11
`CCCC[C@@H]1NC(=O)[C@H](Cc2c[nH]c3ccccc23)NC(=O)[C@H](CCCCN)NC(=O)[C@H](CCC(N)=O)NC(=O)[C@@H](NC(=O)[C@H](Cc2ccc(O)cc2)NC(=O)[C@@H](N)CC#N)CSSC[C@@H]2NC(=O)[C@@H]3CSSC[C@@H](C(=O)N[C@@H](CCCNC(=N)N)C(=O)N[C@@H](CCCCN)C(=O)N[C@@H](CCC(=O)O)C(=O)N[C@H](C(N)=O)[C@@H](C)CC)NC(=O)[C@H](Cc4c[nH]c5ccccc45)NC(=O)[C@H](CC(C)C)NC(=O)[C@H](CCCCN)NC(=O)[C@H](CSSC[C@H](NC(=O)[C@H]([C@@H](C)O)NC(=O)[C@H](Cc4c[nH]c5ccccc45)NC1=O)C(=O)N[C@@H](CC(=O)O)C(=O)N[C@@H](CO)C(=O)N[C@@H](CCCCNC(=O)CCOCCOCCOCCOCCOCCOCCOCCOCCOCCOCCOCCOCCN)C(=O)N[C@@H](CCCNC(=N)N)C(=O)N[C@@H](C)C(=O)N3)NC(=O)[C@H](CCCNC(=N)N)NC(=O)[C@H](CC(C)C)NC(=O)CNC(=O)[C@H](CCC(=O)O)NC2=O` [compound 566] was tested, and the Nav1.4/Nav1.7 was 103.
